The text below walks through data of patent US4098823A, “Monospiroalkyl derivatives of prostaglandins” (Miles Laboratories, Inc., priority 1977, dated 1978).

In one experiment the test system is rat colon. The experiment is described as follows: Cascade Assay, colon (smooth muscle stimulant effect). It counts as cell-based. The following applies: superfused, 50% of maximum (PGF2α). The protocol: (§1) The smooth muscle stimulant effects of test compounds were determined simultaneously in four different tissues that are known to be reactive to naturally occurring prostaglandins. Segments of rat stomach fundus, rat colon, chick rectum and rabbit aortic strip were obtained as described by: Vane, J. R., Brit. J. Pharmacol., 12: 344 (1957); Regoli, D. and Vane, J. R., Brit. J. Pharmacol., 23: 351 (1964); Mann, M. and West, G. B., Brit. J. Pharmacol., 5: 173 (1950); and Furchgott, R. F. and Bhadrakom, R., J. Pharmacol. Exper. Ther., 108: 129 (1953). One end of each preparation was tied to the bottom of a 10 ml tissue chamber and the other to a force displacement transducer (Grass FT-03) for continuous tension recording. The stomach, colon, and rectum segments were stretched to an initial tension of 1 g, while the aortic strip was subjected to 4 g. All preparations were left undisturbed for 1 hour prior to testing. The chambers were equipped with an external jacket through which water, maintained at 40° C, was circulated. Preparations were arranged one beneath the other in descending order (aorta, stomach, colon and rectum). Provision was made for bathing the four tissues successively so that they were superfused with the same fluid (Gaddum, H. J., Brit. J. Pharmacol., 6: 321 [1953]. The bathing fluid consisted of: Krebs bicarbonate solution aerated with a mixture of 95% O2 and 5% CO2 and warmed at 37° C; atropine sulphate (0.1 mcg/ml), phenoxybenzamine hydrochloride (0.1 mcg/ml), propranolol hydrochloride (3.0 mcg/ml), methysergide maleate (0.2 mcg/ml) and brompheniramine maleate (0.1 mcg/ml) were added to eliminate the possibility of smooth muscle responses being due to stimulation of cholinergic, adrenergic, serotonin or histamine receptors. The fluid was circulated by means of a roller pump and was allowed to drip over the preparations at a rate of 10 ml/minute.
(§2) Test compounds were diluted from stock solutions so as to administer quantities ranging from 0.001 100,000 ng in a volume of 0.5 ml. The compounds were applied by dripping on the uppermost tissue, at intervals of 10 to 20 minutes. Maximal increases in tension after each dose were measured and the results were used to plot dose-response curves. ED50 data (doses necessary to produce a response 50% of maximum) were then calculated graphically for each tissue.
(§3) Activity in each tissue was scored according to the following scale: […]

The next experiment has as its system Gastric Secretion. The experiment can be described thus: Effects on Gastric Secretion in the Rat. It counts as in vivo. The following applies: pylorus-ligated rat, subcutaneous, 2 x 1.5 mg/kg (total 3.0 mg/kg), 4 hours. The protocol: A procedure based on that described by Lipmann (J. Pharm. Pharmacol., 21:335 [1968]) was used to assess the influence of test compounds on gastric secretion. Rats of one sex weighing 150 to 200 g were randomly divided into groups of six animals each and fasted for 48 hours previously to the experiments, water being available adlibitum. The animals were anesthetized with ether, the abdomen was opened through a midline incision and the pylorus was ligated. Test compounds were diluted from stock solution so as to administer a dose of 1.5 mg/kg in a volume equivalent to 1 ml/kg. Subcutaneous injections were applied immediately after surgery and again 2 hours later, so that a total dose of 3.0 mg/kg was administered. Dilutions were made with phosphate buffer (pH 7.38) as recommended by Lee et al. (Prostaglandins 3:29 [1973]), in order to insure adequate stability of drugs at the subcutaneous depot. Each compound was tested in one group of rats; an additional control group received only the vehicle.
Four hours after pyloric ligation the animals were killed with ether, the cardias ligated and the stomachs removed. The volume of gastric secretion was measured and the contents centrifuged at 500 rpm for 10 minutes. Total acid in the supernatant was titrated against a 0.1 N sodium hydroxide solution and the amount expressed in mEq.
Volume and total acid values of the treated group were compared with those of the controls by the "T" test. Antisecretory activity was scored according to the following scale: […]

Another experiment relates to rat stomach fundus. The experiment is described as follows: Cascade Assay, stomach (smooth muscle stimulant effect). It counts as cell-based. The following applies: superfused, 50% of maximum (PGE1). Here is the method: as §1, §2, §3
The subject of another experiment is Femoral Blood Flow. The experiment can be described thus: Effects on Femoral Blood Flow in the Dog. It counts as in vivo. To be noted: anesthetized mongrel dog, intraarterial, 0.001 to 10 mcg. Here is the method: The peripheral vasodilator or constrictor effects of these compounds were determined in mongrel dogs of either sex, weighing between 10 and 20 kg anesthestized intravenously with 35 mg/kg of sodium pentobarbital. An external iliac artery was dissected immediately above the femoral arch for a length of approximately 5 cm and a previously calibrated, non-connulating electromagnetic flowmeter sensor with a lumen between 2.5 and 3.5 mm was placed snugly around the vessel. Cannulas were placed in a branch of the artery arising distally to the location of the flowmeter sensor for intraarterial drug administrations, in the contralateral femoral artery for systemic blood pressure recordings and in the trachea for artificial respiration with room air. Femoral blood flow and systemic blood pressure were continously recorded with an electromagnetic flowmeter and pressure tranducer, respectively.
After an adequate control period, test compounds were injected intraarterially at one log-spaced doses ranging from 0.001 to 10 mcg., in a volume of 0.5 ml and at 5 to 10 minute intervals. Maximum changes in bloodflow, as well as any variations in blood pressure, were tabulated for each dose in absolute values (ml/min. and mmHg). The calculations were made taking as control values those existing immediately before administration of each dose. The direction of the observed change (plus for increase and minus for decrease) was also noted. The dose changing bloodflow by 100 ml/min (ED100 ml/min) was calculated graphically and was used for scoring activity as follows: […]

In another experiment the test system is rabbit aortic strip. The experiment can be described thus: Cascade Assay, aorta (smooth muscle stimulant effect). It counts as cell-based. The following applies: superfused, 50% of maximum (PGA2). Here is the method: as §1, §2, §3
The test system of experiment [1] is Blood Pressure and Heart Rate. The experiment can be described thus: Effects on Blood Pressure and Heart Rate in the Anesthetized Cat. It counts as in vivo. The following applies: Felis catus, intravenous, 0.01 to 10.0 mcg/kg, scored only on hypotension, read-out: Test D Activity Value (ED50 mmHg, decrease in blood pressure). Here is the method: The acute effects of test compounds on blood pressure and heart rate were determined in cats of either sex anesthetized with a mixture of pentobarbital sodium (35 mg/kg, i.v.) and barbital sodium (100 mg/kg, i.v.). Cannulas were placed in the trachea to allow adequate spontaneous ventilation, in a femoral artery for blood pressure recording with a strain gage transducer, and in a saphenous vein for drug administration. Heart rate was recorded by means of a cardiotachometer driven by the R wave of the electrocardiogram. After a period of 10 minutes of stable recordings of blood pressure and heart rate, the test compound was administered intravenously at doses increasing from 0.01 to 10.0 mcg/kg, spaced one log and injected at 10 minutes intervals. All doses were injected in a volume of 0.1 ml/kg. Modifications of blood pressure and heart rate induced by the test compound were expressed both in absolute units (mmHg and beats/minutes) and as percent of values recorded immediately before administration of each dose. Biphasic responses were tabulated in the order in which they occur. The direction of the observed changes was also noted (+ for increases and - for decreases).
Activity of compounds in this test was judged only on the basis of the degree of hypotension observed. Thus, the ED50 mmHg (dose decreasing blood pressure by 50 mmHg) was calculated graphically and the compound scored according to the following scale: […]

A further experiment deals with Rat Uterus. The experiment is described as follows: Effects on the Rat Uterus in Vitro. The class given is cell-based. To be noted: Rattus norvegicus; in vitro, 29° C; response 50% that of carbachol; read-out: Test F Rat Uterus, Activity Value (ED50). The protocol: The uterine stimulant effect of test compounds was determined in segments of uterus obtained from rats (140-160 g) pretreated subcutaneously with 1 mg/kg of diethyl-stilbesterol 18 hours before the experiment. The tissues were placed in 10 ml chambers filled with de-Jalon solution at 29° C, were aerated and bubbled with 95% O2 and 5% CO2, and were prepared for isometric recording with force displacement transducers. Preparations were stretched to an initial tension of 1 g and were left undisturbed for 30 minutes. Carbachol (1 mcg/ml) was then added to the bath and a response was recorded. After a 10 minute interval the carbachol procedure was repeated. Responses to increasing concentrations of a test compound (0.001 to 10 mcg/ml with one log intervals) were then recorded every 10 minutes. Preparations were washed four times after each response. All doses of compounds were administered in a 0.1 ml volume. Because it has been observed that the magnitude of the second response to carbachol (approximately 10% greater than the first) is close to the maximal response of the tissue, such value was taken as a measure of the sensitivity of a particular segment. Responses to each concentration of the test compound were expressed in terms of percentage of the second response to carbachol and the ED50 (dose producing a response 50% that of carbachol) was calculated graphically. Activity was scored according to the following scale: […]

The next experiment concerns chick rectum. The experiment is described as follows: Cascade Assay, rectum (smooth muscle stimulant effect). The class given is cell-based. To be noted: superfused, 50% of maximum (PGE1). The protocol: as §1, §2, §3
Experiment [2] concerns steroidogenesis in the adrenal glands. The following applies: hypophysectomized rats; cited from earlier work.

Each structure is given as a SMILES string.

On to `O=C(O)CCCCCC[C@H]1C(=O)CC[C@@H]1/C=C/[C@@H](O)C1CC2(CCC2)C1` (relative stereo) [TR-4136, dl 7-{5-oxo-2R-[3S-hydroxy-3-(spiro[3.3]hept-2-yl)-1E-propenyl]cyclopent-1R-yl}heptanoic acid], for which the “Test E Cascade Assay, Colon, Activity Value (ED50)” value (“Test E Cascade Assay, Colon” below) in the experiment with rat colon is listed as 0 (>10000). For the same compound, the “Test B Activity Value (% decrease in acidity, inhibition of gastric secretion)” value in the experiment with Gastric Secretion was 1 (26-50, not significant). Besides, the “Test E Cascade Assay, Stomach, Activity Value (ED50)” value (“Test E Cascade Assay, Stomach” for short) in the experiment with rat stomach fundus is 2 (101 - 1000). Further, the “Test C Activity Value (ED100 ml/min, increase in femoral blood flow)” value in the experiment with Femoral Blood Flow is listed as 0 (>10.0). The “Test E Cascade Assay, Aorta, Activity Value (ED50)” value (“Test E Cascade Assay, Aorta” below) in the experiment on rabbit aortic strip was 0 (>10000). Also, the ED (50 mmHg) in experiment [1] is over 0.01 mg/kg. Also, the EC50 in the experiment on Rat Uterus is over 10 µg/mL. Also, the “Test E Cascade Assay, Rectum, Activity Value (ED50)” value (“Test E Cascade Assay, Rectum” for short) with chick rectum was 1 (1001 - 10000).

As for `O=C(O)CCC/C=C\C[C@H]1C(=O)CC[C@@H]1/C=C/[C@H](O)C1CC2(CCC2)C1` (relative stereo) [TR-4147, dl 7-{5-oxo-2R-[3R-hydroxy-3-(spiro[3.3]hept-2-yl)-1E-propenyl]cyclopent-1R-yl}hept-5Z-enoic acid], the “Test E Cascade Assay, Colon” value in the experiment with rat colon is reported as 0 (>10000). For the same compound, in the experiment on Gastric Secretion, the “Test B Activity Value (% decrease in acidity, inhibition of gastric secretion)” value was 0 (<26). In the experiment with rat stomach fundus, the “Test E Cascade Assay, Stomach” value is 2 (101 - 1000). Also, the “Test C Activity Value (ED100 ml/min, increase in femoral blood flow)” value in the experiment with Femoral Blood Flow is 0 (>10.0). In addition, in the experiment on rabbit aortic strip, the “Test E Cascade Assay, Aorta” value is reported as 1 (1001 - 10000). The ED (50 mmHg) in experiment [1] lay within 0.00011 to 0.001 mg/kg. Also, the EC50 with Rat Uterus was over 10 µg/mL. The “Test E Cascade Assay, Rectum” value in the experiment on chick rectum was 2 (101 - 1000).

On to `CCCCC[C@H](O)/C=C/[C@@H]1[C@@H](CCCCCCC(=O)O)[C@@H](O)C[C@H]1O` [PGF1α], for which, in experiment [2], the “steroidogenesis in the adrenal glands” value is on record as “stimulate steroidogenesis in the adrenal glands”.

As for `COC(=O)CCCCCC[C@H]1C(=O)C[C@@H](O)[C@@H]1/C=C/[C@@H](O)C1CC2(CCC2)C1` [TR-4121, Methyl 7-{3R-hydroxy-5-oxo-2R-[3S-hydroxy-3-(spiro[3.3]hept-2-yl)-1E-propenyl]cyclopent-1R-yl}heptanoate], the “Test E Cascade Assay, Colon” value with rat colon is listed as 0 (>10000). For the same compound, the “Test B Activity Value (% decrease in acidity, inhibition of gastric secretion)” value with Gastric Secretion is recorded as 1 (26-50, not significant). The “Test E Cascade Assay, Stomach” value with rat stomach fundus is given as 0 (>10000). In the experiment with Femoral Blood Flow, the “Test C Activity Value (ED100 ml/min, increase in femoral blood flow)” value is 2 (0.11 - 1.0). Besides, in the experiment on rabbit aortic strip, the “Test E Cascade Assay, Aorta” value was 0 (>10000). The ED (50 mmHg) in experiment [1] was over 0.01 mg/kg. Moreover, the EC50 with Rat Uterus is over 10 µg/mL. Also, the “Test E Cascade Assay, Rectum” value with chick rectum is recorded as 0 (>10000).

Turning to `COC(=O)CCCCCC[C@@H]1[C@@H](/C=C/[C@@H](O)C2CC3(CCC3)C2)[C@H](O)C[C@@H]1O` [TR-4139, Methyl 7-{3R,5S-dihydroxy-2R-[3S-hydroxy-3-(spiro[3.3]hept-2-yl)-1E-propenyl]cyclopent-1R-yl}heptanoate], the “Test E Cascade Assay, Colon” value in the experiment on rat colon is on record as 0 (>10000). In the experiment on Gastric Secretion, the “Test B Activity Value (% decrease in acidity, inhibition of gastric secretion)” value is reported as 0 (<26). Also, in the experiment with rat stomach fundus, the “Test E Cascade Assay, Stomach” value is on record as 0 (>10000). Further, in the experiment with Femoral Blood Flow, the “Test C Activity Value (ED100 ml/min, increase in femoral blood flow)” value was 0 (>10.0). In the experiment with rabbit aortic strip, the “Test E Cascade Assay, Aorta” value was 0 (>10000). Moreover, the ED (50 mmHg) in [1] was over 0.01 mg/kg. Also, the EC50 in the experiment with Rat Uterus was over 10 µg/mL. Besides, the “Test E Cascade Assay, Rectum” value in the experiment with chick rectum is listed as 0 (>10000).
